Legend:
[1] = biological target: T1, human RORγt (Ligand Binding Domain) (Homo sapiens, UniProt P51449); assay: Fluorescence Polarization (FP) Assay; details: 100 nM human RORγt LBD, 25 nM TAMRA probe, values are activity range bounds
T1 construct: purchased Crelux (Planegg, Germany) batch no PC5032-1
T1 sequence (P51449 269-508 limits assumed): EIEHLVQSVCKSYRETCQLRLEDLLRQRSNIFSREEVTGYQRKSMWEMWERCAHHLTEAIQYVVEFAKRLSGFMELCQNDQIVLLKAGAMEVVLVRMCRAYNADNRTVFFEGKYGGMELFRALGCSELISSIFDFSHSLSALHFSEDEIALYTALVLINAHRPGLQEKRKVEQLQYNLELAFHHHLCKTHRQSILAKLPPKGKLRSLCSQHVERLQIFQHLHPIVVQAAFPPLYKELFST
Experimental: (§1) The activity of the compounds was evaluated using a Fluorescence Polarization (FP) Assay and, RORγ Reporter assay (also referred to as Gal4 assay). The FP assay is an in vitro assay monitoring binding within the ligand binding pocket. The RORγ and the Th17 assays (another suitable assay) are both cell-based assays monitoring functional activity of the compound assayed.
Fluorescence Polarization (FP) Assay
The total volume was 25 μl, in a black Perkin Elmer OptiPlate. As negative control, 1 μl DMSO was used. […] The probe is a fluorescently labeled (TAMRA) RORγt ligand identified by Nuevolution with a total molecular weight of 910 g/mole as shown in Graph A in FIG. 1.

[2] = biological target: T2, ligand binding domain of human RORγ (Homo sapiens, UniProt P51449); assay: RORγ Reporter Assay (Gal4); format: cell-based
T2 construct: host or cells: HEK293t
T2 sequence (P51449 269-508 limits assumed): T1 sequence (P51449 269-508 limits assumed)
Experimental: as §1
RORγ Reporter Assay (Gal4)
Cell-based RORγ functional assays were performed using a commercially available assay product (INDIGO Biosciences, State College, Pa., USA; product # IB04001). The RORγ reporter cells are HEK293t cells transfected with one vector that provides high level constitutive expression of a hybrid protein comprised of the yeast Gal4-DNA binding domain fused to the ligand binding domain of human RORγ, and a second vector comprising the firefly luciferase cDNA functionally linked to the upstream activation sequence (UAS) of yeast Gal4. A suspension of RORγ Reporter Cells was prepared using the protocol and culture medium provided in the kit product, and 100 μl of the Reporter Cell suspension was then dispensed into wells of a white, collagen-treated, 96-well assay plate. Concentrated stocks of test compounds were prepared in DMSO, then further diluted using media provided in the kit to generate ‘2×-concentration’ treatment media. 100 μl of medium for each respective treatment concentration dispensed into triplicate assay wells, thereby combining with the reporter cells. All media formulations contained 10% charcoal stripped Fetal Bovine Serum, but are otherwise proprietary to INDIGO Biosciences. Final treatment concentrations for each test compound were 1,000 nM and 100 nM, each with 0.1% residual DMSO. Separate control treatments were media supplemented with vehicle only (0.1% DMSO) to determine the constitutive level of RORγ activity in the reporter cells, and the reference inverse-agonist ursolic acid (f.c. 6,000 nM to 8.2 nM in 3-fold decrements) to establish a positive control inverse-agonist dose response. Assay plates were placed in a 37° C., 5% CO2, 85% humidity incubator for 24 hour. Treatment media were then discarded, 100 μl of luciferase detection reagent was added to each well, and relative light units (RLUs) were quantified from each assay well using a plate reading luminometer. Values of average RLU+/−standard deviation were computed for all treatment sets, followed by the calculations of fold-reduction: [Average RLUVehicle/Average RLUTest Cmpd]. Percent-reduction of RORγ activity in response to respective test compound treatments was calculated: [100*(1−[Ave RLUTest Cmpd/Ave RLUVehicle)] where the theoretical minimum reduction (0% reduction) derives from Vehicle treatment only, no treatment compound. In some aspects it may be of interest to provide compounds with selective modulation of RORγ for example compounds that are selective to RORγ over RORα, compounds that are selective for RORγ versus RORPβ, and compounds that are selective for RORγ versus BOTH RORα and RORPβ. It may also be of interest to provide compounds that are selective for RORγ versus further nuclear hormone receptors such as CAR1, FXR, GR, LXRα, LXRβ, PPARα, PXR, RARα, RXRα, TRα, VDR. It is apparent to those skilled in the art that these nuclear hormone receptors are merely examples, and that selectivity against other nuclear receptors may also be of interest. It may for example be of interest to provide compounds that modulate RORγ and one or more further nuclear hormone receptors, as well as compounds that modulate both RORγ and RORα, or RORγ and RORβ. It may also be of interest to provide compounds that modulate RORγ and BOTH RORα and RORP, as well as compounds that modulate both RORγ and one or more further nuclear hormone receptors such as CAR1, FXR, GR, LXRα, LXRβ, PPARα, PXR, RARα, RXRα, TRα, VDR. It is apparent to those skilled in the art that these nuclear hormone receptors are merely examples, and that modulation of even other nuclear receptors may also be of interest. […]

CS(=O)(=O)Nc1ncc(CNc2ncnc(N(Cc3ccc(C(F)(F)F)cc3)C3CC3)c2F)cn1 [Example A111, N-[5-[[[6-[cyclopropyl-[[4-(trifluoromethyl)phenyl]methyl]amino]-5-fluoro-pyrimidin-4-yl]amino]methyl]pyrimidin-2-yl]methanesulfonamide]
IC50 [1]: < 1000 nM

CN(Cc1cccc(OC(F)F)c1)c1ncnc(NCc2ccc(CC(N)=O)cc2)c1F [Example A127, 2-[4-[[[6-[[3-(difluoromethoxy)phenyl]methyl-methyl-amino]-5-fluoro-pyrimidin-4-yl]amino]methyl]phenyl]acetamide]
IC50 [1]: < 500 nM

Cc1ccc(CNc2ncnc(N(Cc3ccc(C(F)(F)F)cc3)C3CC3)c2F)nn1 [Example A157, N4-cyclopropyl-5-fluoro-N6-[(6-methylpyridazin-3-yl)methyl]-N4-[[4-(trifluoromethyl)phenyl]methyl] pyrimidine-4,6-diamine]
IC50 [1]: < 500 nM

CS(=O)(=O)Cc1ccc(CNc2ncnc(N(Cc3ccc(C(F)(F)F)cc3)C3CC3)c2F)cc1 [Example A37, N4-cyclopropyl-5-fluoro-N6-[[4-(methylsulfonylmethyl)phenyl]methyl]-N4-[[4-(trifluoromethyl)phenyl]methyl] pyrimidine-4,6-diamine]
IC50 [1]: < 500 nM

CS(=O)(=O)N1CCC(C(=O)Nc2ncnc(N(Cc3ccc(C(F)(F)F)cc3)C3CC3)c2F)CC1 [Example A100, N-[6-[cyclopropyl-[[4-(trifluoromethyl)phenyl]methyl]amino]-5-fluoro-pyrimidin-4-yl]-1-methylsulfonyl-piperidine-4-carboxamide]
IC50 [1]: < 10000 nM

O=C(O)CC1(Nc2ncnc(N(Cc3ccc(C(F)(F)F)cc3)C3CC3)c2F)CCOCC1 [Example A183, 2-[4-[[6-[cyclopropyl-[[4-(trifluoromethyl)phenyl]methyl]amino]-5-fluoro-pyrimidin-4-yl]amino]tetrahydropyran-4-yl]acetic acid]
IC50 [1]: < 2000 nM

CS(=O)(=O)N1CC(CNc2ncnc(N(Cc3ccc(C(F)(F)F)cn3)C3CC3)c2F)C1 [Example A173, N4-cyclopropyl-5-fluoro-N6-[(1-methylsulfonylazetidin-3-yl)methyl]-N4-[[5-(trifluoromethyl)-2-pyridyl]methyl]pyrimidine-4,6-diamine]
IC50 [1]: < 10000 nM

CN(Cc1cccc2ccccc12)c1ncnc(NCc2ccc(CC(N)=O)cc2)c1F [Example A118, 2-[4-[[[5-fluoro-6-[methyl(1-naphthylmethyl)amino]pyrimidin-4-yl]amino]methyl]phenyl]acetamide]
IC50 [1]: < 500 nM

CC(C)C1CCC(CNc2ncnc(N(Cc3ccc(C(F)(F)F)cc3)C3CC3)c2F)CC1 (stereo not drawn) [Example A33, N6-cyclopropyl-5-fluoro-N4-[(4-isopropylcyclohexyl)methyl]-N6-[[4-(trifluoromethyl)phenyl]methyl] pyrimidine-4,6-diamine]
IC50 [1]: < 500 nM

COc1cc(CNc2ncnc(N(Cc3ccc(C(F)(F)F)cc3)C3CC3)c2F)ccn1 [Example A38, N4-cyclopropyl-5-fluoro-N6-[(2-methoxy-4-pyridyl)methyl]-N4-[[4-(trifluoromethyl)phenyl]methyl] pyrimidine-4,6-diamine]
IC50 [1]: < 500 nM

NC(=O)Cc1ccc(CNc2ncnc(N(Cc3cccc(-c4cccnc4)c3)C3CC3)c2F)cc1 [Example A130, 2-[4-[[[6-[cyclopropyl-[[3-(3-pyridyl)phenyl]methyl]amino]-5-fluoro-pyrimidin-4-yl]amino]methyl]phenyl]acetamide]
IC50 [1]: < 500 nM

O=S(=O)(Nc1ccc(CNc2ncnc(N(Cc3ccc(C(F)(F)F)nc3)C3CC3)c2F)cc1)C(F)F [Example A105, N-[4-[[[6-[cyclopropyl-[[6-(trifluoromethyl)-3-pyridyl]methyl]amino]-5-fluoro-pyrimidin-4-yl]amino]methyl]phenyl]-1,1-difluoro-methanesulfonamide]
IC50 [1]: < 10000 nM

NC(=O)Cc1ccc(CNc2ncnc(N(Cc3ccc(C(F)(F)F)nn3)C3CC3)c2F)cc1 [Example A99, 2-[4-[[[6-[cyclopropyl-[[6-(trifluoromethyl)pyridazin-3-yl]methyl]amino]-5-fluoro-pyrimidin-4-yl]amino]methyl]phenyl]acetamide]
IC50 [1]: < 10000 nM

CS(=O)(=O)c1ccc(CNc2ncnc(N(Cc3ccc(C(F)(F)F)nc3)C3CC3)c2F)nc1 [Example A114, N4-cyclopropyl-5-fluoro-N6-[(5-methylsulfonyl-2-pyridyl)methyl]-N4-[[6-(trifluoromethyl)-3-pyridyl]methyl]pyrimidine-4,6-diamine]
IC50 [1]: < 500 nM

COc1ccc(CNc2ncnc(N(Cc3ccc(C(F)(F)F)cc3)C3CC3)c2F)cn1 [Example A25, N6-cyclopropyl-5-fluoro-N4-[(6-methoxy-3-pyridyl)methyl]-N6-[[4-(trifluoromethyl)phenyl]methyl] pyrimidine-4,6-diamine]
IC50 [1]: < 500 nM

O=C(O)CNC(=O)CC1(CNc2ncnc(N(Cc3ccc(C(F)(F)F)cc3)C3CC3)c2F)CCOCC1 [Example A154, 2-[[2-[4-[[[6-[cyclopropyl-[[4-(trifluoromethyl)phenyl]methyl]amino]-5-fluoro-pyrimidin-4-yl]amino]methyl]tetrahydropyran-4-yl]acetyl]amino]acetic acid]
IC50 [1]: < 2000 nM

CN(C)CCCNC(=O)CC1(CNc2ncnc(N(Cc3ccc(C(F)(F)F)cc3)C3CC3)c2F)CCOCC1 [Example A153, 2-[4-[[[6-[cyclopropyl-[[4-(trifluoromethyl)phenyl]methyl]amino]-5-fluoro-pyrimidin-4-yl]amino]methyl]tetrahydropyran-4-yl]-N-[3-(dimethylamino)propyl]acetamide]
IC50 [1]: < 10000 nM

CC(c1cccc2ccccc12)N(C)c1ncnc(NCc2ccc(CC(N)=O)cc2)c1F (stereo not drawn) [Example A131, 2-[4-[[[5-fluoro-6-[methyl-[1-(1-naphthyl)ethyl]amino]pyrimidin-4-yl]amino]methyl]phenyl]acetamide]
IC50 [1]: < 500 nM

Fc1c(NCc2ccsc2)ncnc1N(Cc1ccc(C(F)(F)F)cc1)C1CC1 [Example A21, N6-cyclopropyl-5-fluoro-N4-(3-thienylmethyl)-N6-[[4-(trifluoromethyl)phenyl]methyl] pyrimidine-4,6-diamine]
IC50 [1]: < 1000 nM

CS(=O)(=O)CC1(CNc2ncnc(N(Cc3ccc(C(F)(F)F)cc3)C3CC3)c2F)CCOCC1 [Example A49, N6-cyclopropyl-5-fluoro-N4-[[4-(methylsulfonylmethyl)tetrahydro-pyran-4-yl]methyl]-N6-[[4-(trifluoromethyl)phenyl]methyl] pyrimidine-4,6-diamine]
inhibition at 1 µM ([2]; HEK-293T, 1 μM test compound, HEK293t RORγ reporter cells, 24 hour, read-out: Gal4 activity range @ 1 μM (% inhibition)): > 80%
Gal4 activity range @ 0.1 μM (% inhibition) ([2]; RORγ Reporter Assay (Gal4), HEK293t reporter cells, compound at 0.1 μM, values are activity range bounds): >80 % inhibition

Reference: patent US10683293B2, “Optionally fused heterocyclyl-substituted derivatives of pyrimidine useful for the treatment of inflammatory, metabolic, oncologic and autoimmune diseases” (NUEVOLUTION A/S, priority 2014, dated 2020)
